Reference: article PMC10199925, “Cyclodextrin carboxylate improves the stability and activity of nisin in a wider range of application conditions” (NPJ Science of Food, 2023)
Where no end group is shown, it is not given here. [ ]: non-standard residue; d: D form. Dhb = C/C=C(\N)C(=O)O; Dha = C=C(N)C(=O)O

Columns and labels:
[1] = tested on: S. aureus (ATCC 6538); experiment: Antibacterial activity by optical density (OD600) of bacterial culture; format: cell-based
Protocol: The antimicrobial activities of the samples were determined using S. aureus (ATCC 6538) as a representative Gram-positive bacterium. The optical density (OD) was used to assess the antibacterial activity of the nisin and the nisin-SACD complexes[41],[42]. The bacteria were precultured on Luria-Bertani media at 37 °C for 24 h to obtain seed cultures. These seed cultures were then diluted to 10^6 CFU using Luria-Bertani media. […] A bacteria culture containing no sample was used as a blank control group. After incubating at 37 °C for 24 h, the growth of bacteria in the culture media was determined by recording the OD at 600 nm (OD600) using an UV-visible spectrophotometer (UV–1800PC, Mapada, China).

[2] = tested on: S. aureus; experiment: MIC by broth microdilution; format: cell-based; conditions: nisin 3.125-400 µg/mL, SACD 0.3125-40 mg/mL, 37 °C, 24 h, result in words
Protocol: (§1) After confirming the antibacterial activity of nisin-SACD complexes, the MIC of nisin-SACD complexes was further measured by the broth microdilution method as reported by Li et al.. […] The initial solutions were then serially diluted until the concentration of them reached 3.125 µg/mL, 0.3125 mg/mL, 0.3125 mg/mL, and 0.3125 mg/mL, respectively. 100 µL of the samples at different concentrations were then cultured with 100 µL S. aureus dilutions containing 10^6 CFU bacteria in 96-well plates. The plates were incubated at 37 °C for 24 h. […] S aureus treated with nisin-SACD and HSS-nisin-SACD at MIC were further stained using a live/dead bacterial double stain kit (LMAI Bio, China), and the number of the total bacteria and dead bacteria could be represented by the fluorescence intensity value directly. Note there is no statistical relationship between the fluorescence intensity of the total bacteria and the dead bacteria, since they are stained by two different fluorescent dyes.

[3] = tested on: S. aureus; experiment: Live/dead bacterial double stain fluorescence intensity; format: cell-based; conditions: complexes at their MIC levels, result in words
Protocol: as §1

[4] = Thermogravimetric analysis (TG/dTG); format: physicochemical; conditions: dry powder, N2 50 mL/min, 10 °C/min, 30 to 600 °C
Protocol: The thermal behavior of the nisin-SACD complexes was evaluated using a thermogravimetric (TG) analysis system (TGA2, Mettler–Toledo, Schwerzenbach, Switzerland) under N2 (50 mL/min) at a 10 °C/min heating rate over a temperature range from 30 to 600 °C.

[5] = tested on: S. aureus; conditions: pure SACD at a relatively high dose; result in words; cited from earlier work
From the text: S. aureus is commonly used as model Gram-positive bacteria to predict the antibacterial effects of the bacteriostatic agent. Meanwhile, it is a significant cause of foodborne illness leading to gastroenteritis, diarrhea, and vomiting. Foods susceptible to S. aureus intoxication including meat, egg, and dairy products. It is known that nisin can deactivate bacteria by adsorbing to the cell membrane, disrupting the cell membrane, and promoting the loss of essential int ...

| Substance | OD600 value of the bacterial suspension after treatment ([1]; 1 mg nisin or 50 mg nisin-SACD (containing 1 mg nisin) in 10 mL culture (10^6 CFU), LB media, 37 °C, 24 h, blank OD600 1.23, n = 3) | fold decrease of OD600 versus untreated culture ([1]; as for OD600, relative to blank 1.23) [fold] | antibacterial effects at the setting concentration range (MIC test) [2] | total and dead bacteria (fluorescence intensity) in comparison to the untreated group [3] | maximum decomposition peak temperature (dTG) [4] [°C] | weight loss at the end of heating (TG) [4] [%] | antibacterial activity against S. aureus [5] |
| --- | --- | --- | --- | --- | --- | --- | --- |
| Nisin (I[Dhb]SI[Dha]LCTPGCKTGALMGCNMKTATCHCSIHV[Dha]K; thioether (positions not given here); not fully specified (residues 3, 8, 13, 23, 25, bridges); UniProt P13068 24-57, looked up) [natural bacteriocin, small peptide of 34 amino acid residues produced by Lactococcus lactis; purchased from Aladdin] | 0.46 | 2.7 | no significant antibacterial effects | Certain degree of inhibition on bacteria proliferation | 333 | < 7 |  |
| succinic acid-β-cyclodextrin [SACD] |  |  | no significant antibacterial effects | Certain degree of inhibition on bacteria proliferation |  |  | did show antibacterial activity |
